Reference: patent publication US9120749B2, “Quinoline derivatives and MELK inhibitors containing the same” (ONCOTHERAPY SCIENCE, INC., priority 2010, dated 2015)
Counter-ions that a name gives are not always drawn. Like-named read-outs stand apart in the source and are kept apart here.

Assays:
T47D cells = experiment: Cell-based assay: anti-proliferative activity, Cell Counting Kit-8, 72 hours (T47D)
Method in brief: (§1)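 Cellular growth is read by CCK-8 colorimetric kit 72 h after inhibitor addition to seeded cells, and IC50 values are derived from the resulting data; MELK protein levels in these lines are checked beforehand by immunoblotting whole crude lysate.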

HT-1197 cells = experiment: Cell-based assay: anti-proliferative activity, Cell Counting Kit-8, 72 hours (HT-1197, negative control without MELK expression); details: HT1197 cells (negative control, no MELK expression), 72 hours
Method in brief: as §1

A549 cells = experiment: Cell-based assay: anti-proliferative activity, Cell Counting Kit-8, 72 hours (A549); details: 72 hours
Method in brief: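 A549 cells seeded in 96-well plates and exposed to candidate inhibitors for 72 hours. Growth measured with Cell Counting Kit-8; IC50 values calculated from the dose response.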

DU4475 cells = experiment: Cell-based assay: anti-proliferative activity, Cell Counting Kit-8, 72 hours (DU4475)
22Rv1 cells = experiment: Cell-based assay: anti-proliferative activity, Cell Counting Kit-8, 72 hours (22Rv1)
MELK = MELK (Homo sapiens, UniProt Q14680); experiment: Kinase assay: MELK activity, phosphorylation of FITC-labeled histone H3 peptide measured by IMAP fluorescence polarization; format: biochemical
Method in brief: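 FP readout: FITC-histone H3 peptide phosphorylation, read 0.5 h (RT) after stopping with 3x volume of IMAP progressive binding solution. Final DMSO 1%.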

[1] = MELK kinase assay, IMAP fluorescence polarization, 50 micro-M ATP, read-out: IC50 (μM) (kinase assay)
[2] = read-out: IC50 (μM) (kinase assay)
[3] = hydrochloride, read-out: IC50 (μM) (kinase assay)

Sequence of MELK (Q14680 whole entry, looked up): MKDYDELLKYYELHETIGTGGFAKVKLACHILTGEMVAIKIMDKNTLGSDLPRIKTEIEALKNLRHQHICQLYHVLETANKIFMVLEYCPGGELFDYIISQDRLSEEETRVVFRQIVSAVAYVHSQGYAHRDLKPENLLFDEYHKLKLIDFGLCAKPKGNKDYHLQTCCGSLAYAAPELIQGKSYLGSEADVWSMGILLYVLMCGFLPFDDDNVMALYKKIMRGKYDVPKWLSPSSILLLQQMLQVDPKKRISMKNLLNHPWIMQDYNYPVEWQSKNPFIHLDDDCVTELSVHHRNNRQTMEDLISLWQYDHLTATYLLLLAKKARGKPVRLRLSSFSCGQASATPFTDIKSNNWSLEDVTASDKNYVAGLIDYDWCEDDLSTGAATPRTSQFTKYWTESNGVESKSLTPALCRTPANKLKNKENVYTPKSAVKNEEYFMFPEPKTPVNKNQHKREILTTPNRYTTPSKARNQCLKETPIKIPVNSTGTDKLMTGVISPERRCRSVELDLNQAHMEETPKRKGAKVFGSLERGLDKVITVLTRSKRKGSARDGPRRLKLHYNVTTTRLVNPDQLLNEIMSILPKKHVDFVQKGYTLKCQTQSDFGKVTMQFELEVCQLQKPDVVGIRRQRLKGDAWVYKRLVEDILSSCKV

Row | Structure (SMILES) | IC50 (T47D cells; Homo sapiens, T47D, 72 h) [µM] | IC50 (HT-1197 cells; Homo sapiens, HT1197, 72 h) [µM] | IC50 (A549 cells; Homo sapiens, A549, 72 h) [µM] | IC50 (DU4475 cells; Homo sapiens, DU-4475, 72 h) [µM] | IC50 (22Rv1 cells; Homo sapiens, 22Rv1, 72 h) [µM] | IC50 (MELK; [1]) [µM] | IC50 (MELK; [2]) [µM] | other results
1 | CC(=O)c1cnc2ccc(-c3cc(F)c(O)c(Cl)c3)cc2c1NC1CCC(C(=O)N2CCN(C)CC2)CC1 (centres unmarked) [Example 849, 1-(6-(3-chloro-5-fluoro-4-hydroxyphenyl)-4-(4-(4-methylpiperazine-1-carbonyl)cyclohexylamino)quinolin-3-yl)ethanone hydrochloride] | 0.47 | 4.5 | 1.3 | 1 | 1 | 0.018 | – | –
2 | CC(=O)c1cnc2ccc(-c3cc(F)c(O)c(Cl)c3)cc2c1N[C@H]1CC[C@H](CN2CCC(N)C2)CC1 (stereo partly drawn) [Example 786, 1-(4-(1R,4R)-4-((3-aminopyrrolidin-1-yl)methyl)cyclohexylamino)-6-(3-chloro-5-fluoro-4-hydroxyphenyl)quinolin-3-yl)ethanone hydrochloride] | 0.07 | 10 | 0.96 | 0.23 | 0.17 | – | 0.0031 | –
3 | CN(C)CCNc1ccc(Nc2c(C(=O)C3CC3)cnc3ccc(-c4cc(Cl)c(O)c(Cl)c4)cc23)cn1 [Example 748, cyclopropyl(6-(3,5-dichloro-4-hydroxyphenyl)-4-(6-(2-(dimethylamino)ethylamino)pyridin-3-ylamino)quinolin-3-yl)methanone hydrochloride] | – | – | – | – | 0.1 | – | – | IC50 (T47D cells; 72 hours, hydrochloride): 0.088 µM; IC50 (HT-1197 cells; hydrochloride): 1.6 µM; IC50 (A549 cells; hydrochloride): 0.069 µM; IC50 (DU4475 cells; hydrochloride): 0.032 µM; IC50 (MELK; [3]): 0.0026 µM
4 | CC(=O)c1cnc2ccc(-c3cc(Cl)c(O)c(Cl)c3)cc2c1N[C@H]1CC[C@H](N(C)C)CC1 [Example 765, 1-{6-(3,5-Dichloro-4-hydroxyphenyl)-4-[trans-4-(dimethylamino)cyclohexylamino]quinolin-3-yl}ethanone] | 0.081 | 1.7 | 0.17 | 0.047 | 0.14 | – | 0.0022 | –
5 | CC(=O)c1cnc2ccc(-c3cc(Cl)c(O)c(Cl)c3)cc2c1Nc1ccc(OCCN(C)C)nc1 [Example 852, 1-(6-(3,5-dichloro-4-hydroxyphenyl)-4-(6-(2-(dimethylamino)ethoxy)pyridin-3-ylamino)quinolin-3-yl)ethanone hydrochloride] | 0.16 | 22 | 0.29 | 0.088 | 0.55 | 0.0028 | – | –
6 | COc1cc(-c2ccc3ncc(C(C)=O)c(Nc4ccc(N5CCC(N)C5)nc4)c3c2)cc(Cl)c1O (centres unmarked) [Example 774, 1-(4-(6-(3-aminopyrrolidin-1-yl)pyridin-3-ylamino)-6-(3-chloro-4-hydroxy-5-methoxyphenyl)quinolin-3-yl)ethanone] | 0.034 | 0.71 | 0.045 | 0.056 | 0.082 | – | 0.0019 | –
7 | O=C(c1cnc2ccc(-c3cc(F)c(O)c(Cl)c3)cc2c1Nc1cccc(CCN2CCCC2)c1)C1CC1 [Example 799, {6-(3-Chloro-5-fluoro-4-hydroxyphenyl)-4-[3-(2-(pyrrolidin-1-yl)ethyl)phenylamino]quinolin-3-yl}(cyclopropyl)methanone] | 0.52 | 10 | 0.081 | 0.079 | 0.25 | – | 0.0047 | –
8 | CN1CCN(c2ccc(Nc3c(C(=O)C4CC4)cnc4ccc(-c5cc(F)c(O)c(F)c5)cc34)cn2)CC1 [Example 778, cyclopropyl(6-(3,5-difluoro-4-hydroxyphenyl)-4-(6-(4-methylpiperazin-1-yl)pyridin-3-ylamino)quinolin-3-yl)methanone] | 0.1 | 2.6 | 0.17 | 0.22 | 0.48 | – | 0.021 | –
9 | CNC1CCCN(c2ccc(Nc3c(C(C)=O)cnc4ccc(-c5cc(Cl)c(O)c(Cl)c5)cc34)cn2)C1 (centres unmarked) [Example 806, 1-(6-(3,5-dichloro-4-hydroxyphenyl)-4-((6-(3-(methylamino)piperidin-1-yl)pyridin-3-yl)amino)quinolin-3-yl)ethanone trihydrochloride] | 0.027 | 0.33 | 0.054 | 0.032 | 0.039 | – | – | IC50 (MELK): 0.0012 µM
10 | CN(C)CCN1CCC(Nc2c(C(=O)C3CC3)cnc3ccc(-c4cc(Cl)c(O)c(Cl)c4)cc23)CC1 [Example 819, cyclopropyl(6-(3,5-dichloro-4-hydroxyphenyl)-4-(1-(2-(dimethylamino)ethyl)piperidin-4-ylamino)quinolin-3-yl)methanone] | 0.38 | 3.3 | 0.44 | 0.17 | 0.64 | 0.0024 | – | –
11 | CNC1CCN(c2ccc(Nc3c(C(C)=O)cnc4ccc(-c5cc(Cl)c(O)c(Cl)c5)cc34)cn2)C1 (centres unmarked) [Example 788, 1-(6-(3,5-dichloro-4-hydroxyphenyl)-4-((6-(3-(methylamino)pyrrolidin-1-yl)pyridin-3-yl)amino)quinolin-3-yl)ethanone trihydrochloride] | 0.071 | 8.6 | 0.16 | 0.07 | 0.1 | – | 0.0017 | –
12 | CC(=O)c1cnc2ccc(-c3cc(Cl)c(O)c(Cl)c3)cc2c1N[C@H]1CC[C@H](N(C)C)CC1 [Example 766, 1-(6-(3,5-dichloro-4-hydroxyphenyl)-4-(trans-4-(dimethylamino)cyclohexylamino)quinolin-3-yl)ethanone hydrochloride] | – | – | – | – | – | – | – | IC50 (T47D cells; 72 hours, hydrochloride): 0.074 µM; IC50 (HT-1197 cells; hydrochloride): 1 µM; IC50 (A549 cells; hydrochloride): 0.14 µM; IC50 (DU4475 cells; hydrochloride): 0.06 µM; IC50 (22Rv1 cells; hydrochloride): 0.1 µM; IC50 (MELK; [3]): 0.0017 µM
13 | CC(=O)c1cnc2ccc(-c3cc(Cl)c(O)c(Cl)c3)cc2c1Nc1ccc(N2CCC(N(C)C)C2)nc1 (centres unmarked) [Example 854, 1-(6-(3,5-dichloro-4-hydroxyphenyl)-4-((6-(3-(dimethylamino)pyrrolidin-1-yl)pyridin-3-yl)amino)quinolin-3-yl)ethanone] | 0.25 | – | 0.39 | 0.28 | 0.51 | 0.0032 | – | IC50 (HT-1197 cells): 10 µM
14 | CNC1CCCN(c2ccc(Nc3c(C(=O)C4CC4)cnc4ccc(-c5cc(Cl)c(O)c(Cl)c5)cc34)cn2)C1 (centres unmarked) [Example 807, cyclopropyl(6-(3,5-dichloro-4-hydroxyphenyl)-4-((6-(3-(methylamino)piperidin-1-yl)pyridin-3-ylamino)quinolin-3-yl)methanone trihydrochloride] | 0.058 | 1.1 | 0.056 | 0.032 | 0.055 | – | 0.0015 | –
15 | CC(=O)c1cnc2ccc(-c3cc(F)c(O)c(Cl)c3)cc2c1N[C@H]1CC[C@H](CN2CCC[C@@H]2CO)CC1 [Example 808, 1-(6-(3-chloro-5-fluoro-4-hydroxyphenyl)-4-(1R,4R)-4-(((R)-2-(hydroxymethyl)pyrrolidin-1-yl)methyl)cyclohexylamino)quinolin-3-yl)ethanone hydrochloride] | 0.12 | 8.2 | 0.22 | 0.11 | 0.22 | – | 0.0065 | –
16 | CCC(=O)c1cnc2ccc(-c3cc(F)c(O)c(Cl)c3)cc2c1Nc1ccc(CN(C)C)cc1 [Example 770, 1-(6-(3-chloro-5-fluoro-4-hydroxyphenyl)-4-((4-((dimethylamino)methyl)phenyl)amino)quinolin-3-yl)propan-1-one] | 0.074 | 0.84 | 0.11 | 0.062 | 0.17 | – | 0.015 | –
17 | CCC(=O)c1cnc2ccc(-c3cc(Cl)c(O)c(Cl)c3)cc2c1Nc1ccc(N2CCCC(N)C2)nc1 (centres unmarked) [Example 824, 1-(4-(6-(3-aminopiperidin-1-yl)pyridin-3-ylamino)-6-(3,5-dichloro-4-hydroxyphenyl)quinolin-3-yl)propan-1-one] | 0.021 | 0.28 | 0.036 | 0.026 | 0.026 | 0.0016 | – | –
18 | CN(C)CCN1CCC(Nc2c(C(=O)C3CC3)cnc3ccc(-c4cc(Cl)c(O)c(Cl)c4)cc23)CC1 [Example 820, cyclopropyl(6-(3,5-dichloro-4-hydroxyphenyl)-4-(1-(2-(dimethylamino)ethyl)piperidin-4-ylamino)quinolin-3-yl)methanone] | – | – | – | – | – | 0.0018 | – | IC50 (T47D cells; 72 hours): 0.32 µM; IC50 (HT-1197 cells): 2.9 µM; IC50 (A549 cells): 0.46 µM; IC50 (DU4475 cells): 0.15 µM; IC50 (22Rv1 cells): 0.82 µM
19 | CN(C)CCNc1ccc(Nc2c(C(=O)C3CC3)cnc3ccc(-c4cc(F)c(O)c(Cl)c4)cc23)cn1 [Example 777, (6-(3-chloro-5-fluoro-4-hydroxyphenyl)-4-(6-(2-(dimethylamino)ethylamino)pyridin-3-ylamino)quinolin-3-yl)(cyclopropyl)methanone trihydrochloride] | – | – | – | – | – | – | – | IC50 (T47D cells; 72 hours, trihydrochloride): 0.12 µM; IC50 (HT-1197 cells; trihydrochloride): 1.6 µM; IC50 (A549 cells; trihydrochloride): 0.12 µM; IC50 (DU4475 cells; trihydrochloride): 0.047 µM; IC50 (22Rv1 cells; trihydrochloride): 0.17 µM
